From ChEMBL document CHEMBL1148666, “Inhibition of protein tyrosine phosphatase 1B by diterpenoids isolated from Acanthopanax koreanum” (Bioorg Med Chem Lett, 2006)

Biological target: T1, Tyrosine-protein phosphatase non-receptor type 1 (Homo sapiens, UniProt P18031)
T1 sequence (P18031 whole entry): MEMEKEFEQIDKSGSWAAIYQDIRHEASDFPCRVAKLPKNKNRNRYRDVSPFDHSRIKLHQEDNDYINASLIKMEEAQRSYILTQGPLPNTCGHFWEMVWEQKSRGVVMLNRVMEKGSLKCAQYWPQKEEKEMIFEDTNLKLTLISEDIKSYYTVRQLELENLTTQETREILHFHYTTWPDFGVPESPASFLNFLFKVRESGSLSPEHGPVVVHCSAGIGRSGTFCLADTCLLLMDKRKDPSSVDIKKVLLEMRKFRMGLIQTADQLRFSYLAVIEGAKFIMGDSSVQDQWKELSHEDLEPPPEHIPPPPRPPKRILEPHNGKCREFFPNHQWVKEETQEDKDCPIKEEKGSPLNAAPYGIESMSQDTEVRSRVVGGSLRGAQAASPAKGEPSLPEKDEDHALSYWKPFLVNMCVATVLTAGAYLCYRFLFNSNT
Assay: Inhibition of human recombinant PTP1B

| Structure (SMILES) | IC50 |
| --- | --- |
| C=C[C@@]1(C)CC=C2C(CCC3[C@](C)(CO)CCC[C@@]23C)C1 (some centres undefined) [ACANTHOL] | > 30 µM |
| CC(C)CC(=O)OC[C@H]1C[C@@]23CCC4[C@@](C)(CCC[C@@]4(C)C(=O)O)C2CC[C@@H]1C3 (some centres undefined) | 7.1 µM |
| CCCCCCCCCCCCCCCC(=O)C1=C(O)[C@@H](CO)OC1=O | 4.5 µM |
| CC(C)CC(=O)OC[C@@]1(O)C[C@@]23CCC4[C@@](C)(CCC[C@@]4(C)C(=O)O)C2CC[C@@H]1C3 (some centres undefined) | > 30 µM |
| C=C1C[C@@]23CC[C@H]4[C@@](C)(CCC[C@@]4(C)C(=O)O)[C@@H]2CC[C@@H]1C3 [KAURENOIC ACID] | 20.2 µM |

Next, values leading:

| IC50 | Structure (SMILES) |
| --- | --- |
| > 30 µM | C=C[C@]1(C)CC[C@@]2(O)[C@@H](C1)C(=O)CC1[C@](C)(C(=O)O)CCC[C@]12C (some centres undefined) [ACANTHOKOREOIC ACID A] |
| > 30 µM | C=C[C@]1(C)C=C2C(CC1)[C@]1(C)CCC[C@@](C)(C(=O)O)C1C[C@@H]2O (some centres undefined) |
| 23.5 µM | C=C[C@@]1(C)CC=C2C(CCC3[C@](C)(C(=O)O)CCC[C@@]23C)C1 (some centres undefined) [ACANTHOIC ACID] |
| > 30 µM | C[C@@]12CCC[C@@](C)(C(=O)O)C1CC[C@@]13C[C@@H](CCC12)[C@](C)(O)C3 (some centres undefined) |
